Source: ChEMBL document CHEMBL4837215, “Application of cation-π interactions in enzyme-substrate binding: Design, synthesis, biological evaluation, and molecular dynamics insights of novel hydrophilic substrates for NQO1” (Eur J Med Chem, 2021)
Converted amounts (≈) assume the structure as drawn. The source made the active and inactive calls. No cut-off for these calls is given here.

Tested on: A549/TR
Assay: Cytotoxicity against human A549/Taxol cells overexpressing NQO1 assessed as reduction in cell viability incubated for 72 hrs by MTT assay
Format: functional, cell-based
Settings: not given

SMILES | IC50
CC1(C)CCC2=C(O1)c1ccccc1C(=O)C2=O [LAPACHONE] | 11 µM
Cc1cc2c(cc1C)-c1oc(CN3CCN(C)CC3)c(C)c1C(=O)C2=O | 4.5 µM

Tested on: not listed separately
Assay: Selectivity index, ratio of IC50 for human A549 cells overexpressing NQO1 to IC50 for NQO1-deficient human A549 cells assessed as reduction in cell viability pretreated with DIC followed by compound addition and measured after 72 hrs by MTT assay
Settings: not given

SMILES | Ratio IC50
CC1(C)CCC2=C(O1)c1ccccc1C(=O)C2=O [LAPACHONE] | 5.1
Cc1cc2c(cc1C)-c1oc(CN3CCN(C)CC3)c(C)c1C(=O)C2=O | >12.5

Tested on: A549
Assay: Cytotoxicity against human A549 cells overexpressing NQO1 assessed as reduction in cell viability incubated for 72 hrs by MTT assay
Format: functional, cell-based
Settings: A549, 72 h

SMILES | IC50
Cc1cc2c(cc1C)-c1oc(CN3CCCCC3)c(C)c1C(=O)C2=O | 12 µM
Cc1cc2c(cc1C)-c1oc(CN3CCN(C4CC4)CC3)c(C)c1C(=O)C2=O | 3.9 µM
Cc1cc2c(cc1C)-c1oc(CN3CCOCC3)c(C)c1C(=O)C2=O | 4.9 µM
CCN1CCN(Cc2oc3c(c2C)C(=O)C(=O)c2cc(C)c(C)cc2-3)CC1 | 2.9 µM
Cc1cc2c(cc1C)-c1oc(CN3CCN(S(C)(=O)=O)CC3)c(C)c1C(=O)C2=O | 7.2 µM
Cc1cc2c(cc1C)-c1oc(CN3CCN(C)CC3)c(C)c1C(=O)C2=O | 2.4 µM
Cc1cc2c(cc1C)-c1occ(C)c1C(=O)C2=O | 7.4 µM

Target: NAD(P)H dehydrogenase [quinone] 1 (Homo sapiens) (UniProt P15559)
Assay: Induction of recombinant human NQO1-mediated ROS generation assessed as rate of reduction of cytochrome C at 25 uM in presence of DIC by spectrophotometric assay
Settings: not given

Sequence of NAD(P)H dehydrogenase [quinone] 1 (Homo sapiens) (P15559 whole entry): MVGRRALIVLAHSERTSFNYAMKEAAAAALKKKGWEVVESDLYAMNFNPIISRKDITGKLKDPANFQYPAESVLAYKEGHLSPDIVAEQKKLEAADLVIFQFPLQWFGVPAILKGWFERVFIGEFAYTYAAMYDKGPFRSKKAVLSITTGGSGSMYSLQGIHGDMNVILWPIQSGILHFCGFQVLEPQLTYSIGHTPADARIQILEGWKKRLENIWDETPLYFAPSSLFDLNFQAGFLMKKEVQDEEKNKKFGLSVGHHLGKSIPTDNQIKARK

SMILES | Activity
Cc1cc2c(cc1C)-c1oc(CN3CCN(C)CC3)c(C)c1C(=O)C2=O | inactive

Tested on: A549
Assay: Cytotoxicity against NQO1-deficient human A549 cells assessed as reduction in cell viability pretreated with DIC followed by compound addition and incubated for 72 hrs by MTT assay
Format: functional, cell-based
Settings: not given

SMILES | IC50
CC1(C)CCC2=C(O1)c1ccccc1C(=O)C2=O [LAPACHONE] | 29 µM
Cc1cc2c(cc1C)-c1oc(CN3CCN(C)CC3)c(C)c1C(=O)C2=O | 30 µM

Tested on: not listed separately
Assay: Intrinsic solubility of the compound after 8 hrs by potentiometric titration method
Format: physicochemical
Settings: read-out: Intrinsic_solubility

SMILES | solubility at 8 h
CCN1CCN(Cc2oc3c(c2C)C(=O)C(=O)c2cc(C)c(C)cc2-3)CC1 | 82 µg/mL (≈ 224 µM)
Cc1cc2c(cc1C)-c1oc(CN3CCN(C)CC3)c(C)c1C(=O)C2=O | 110 µg/mL (≈ 312 µM)

Target: NAD(P)H dehydrogenase [quinone] 1 (Homo sapiens) (UniProt P15559)
Assay: Substrate activity at recombinant human NQO1 assessed as enzymatic reduction rate at 10 uM
Settings: not given

SMILES | Activity
Cc1cc2c(cc1C)-c1oc(CN3CCCCC3)c(C)c1C(=O)C2=O | 768 µmol/min
Cc1cc2c(cc1C)-c1oc(CN3CCN(C4CC4)CC3)c(C)c1C(=O)C2=O | 1100 µmol/min
Cc1cc2c(cc1C)-c1oc(CN3CCOCC3)c(C)c1C(=O)C2=O | 996 µmol/min
CCN1CCN(Cc2oc3c(c2C)C(=O)C(=O)c2cc(C)c(C)cc2-3)CC1 | 1200 µmol/min
Cc1cc2c(cc1C)-c1oc(CN3CCN(S(C)(=O)=O)CC3)c(C)c1C(=O)C2=O | 871 µmol/min
Cc1cc2c(cc1C)-c1oc(CN3CCN(C)CC3)c(C)c1C(=O)C2=O | 1260 µmol/min
Cc1cc2c(cc1C)-c1occ(C)c1C(=O)C2=O | 690 µmol/min

Tested on: not listed separately
Assay: Solubility of the compound in pH 3 after 8 hrs by potentiometric titration method
Format: physicochemical
Settings: buffer

SMILES | solubility at 8 h
CCN1CCN(Cc2oc3c(c2C)C(=O)C(=O)c2cc(C)c(C)cc2-3)CC1 | > 1000 µg/mL
Cc1cc2c(cc1C)-c1oc(CN3CCN(C)CC3)c(C)c1C(=O)C2=O | > 1000 µg/mL

Tested on: not listed separately
Assay: Lipophilicity, logD of the compound at pH 7.4 by potentiometric titration method
Format: physicochemical
Settings: buffer

SMILES | logD
CCN1CCN(Cc2oc3c(c2C)C(=O)C(=O)c2cc(C)c(C)cc2-3)CC1 | 1.99
Cc1cc2c(cc1C)-c1oc(CN3CCN(C)CC3)c(C)c1C(=O)C2=O | 1.97

Tested on: not listed separately
Assay: Selectivity index, ratio of IC50 for NQO1-deficient human NCI-H596 cells to IC50 for human A549 cells overexpressing NQO1 incubated for 72 hrs by MTT assay
Settings: not given

SMILES | Ratio IC50
CC1(C)CCC2=C(O1)c1ccccc1C(=O)C2=O [LAPACHONE] | 4.7
Cc1cc2c(cc1C)-c1oc(CN3CCN(C)CC3)c(C)c1C(=O)C2=O | 11

Tested on: NCI-H596
Assay: Cytotoxicity against NQO1-deficient human NCI-H596 cells assessed as reduction in cell viability incubated for 72 hrs by MTT assay
Format: functional, cell-based
Settings: NCI-H596, 72 h

SMILES | IC50
CC1(C)CCC2=C(O1)c1ccccc1C(=O)C2=O [LAPACHONE] | 27 µM
Cc1cc2c(cc1C)-c1oc(CN3CCN(C)CC3)c(C)c1C(=O)C2=O | 27 µM

Target: NAD(P)H dehydrogenase [quinone] 1 (Homo sapiens) (UniProt P15559)
Assay: Induction of recombinant human NQO1-mediated ROS generation assessed as rate of reduction of cytochrome C at 25 uM by spectrophotometric assay
Settings: filed as activator

SMILES | Activity
Cc1cc2c(cc1C)-c1oc(CN3CCN(C)CC3)c(C)c1C(=O)C2=O | Active

Tested on: A549
Assay: Induction of superoxide anion generation in human A549 cells at 10 uM pretreated with DIC or NAC for 1 hr followed by compound addition and measured after 3 hrs by […] staining based confocal laser scanning microscopic method
Format: functional, cell-based
Settings: not given

SMILES | Activity
Cc1cc2c(cc1C)-c1oc(CN3CCN(C)CC3)c(C)c1C(=O)C2=O | inactive

Tested on: A549
Assay: Induction of superoxide anion generation in human A549 cells at 1 to 10 uM incubated for 3 hrs by […] staining based confocal laser scanning microscopic method
Format: functional, cell-based
Settings: dose 1-10 µM

SMILES | Activity
Cc1cc2c(cc1C)-c1oc(CN3CCN(C)CC3)c(C)c1C(=O)C2=O | Active

Tested on: A549
Assay: Cytotoxicity against human DPP-resistant A549 cells overexpressing NQO1 assessed as reduction in cell viability incubated for 72 hrs by MTT assay
Format: functional, cell-based
Settings: A549, 72 h

SMILES | IC50
CC1(C)CCC2=C(O1)c1ccccc1C(=O)C2=O [LAPACHONE] | 16 µM
Cc1cc2c(cc1C)-c1oc(CN3CCN(C)CC3)c(C)c1C(=O)C2=O | 4.8 µM

Tested on: not listed separately
Assay: Selectivity index, ratio of IC50 for NQO1-deficient human L02 cells to IC50 for human A549 cells overexpressing NQO1 incubated for 72 hrs by MTT assay
Settings: not given

SMILES | Ratio IC50
Cc1cc2c(cc1C)-c1oc(CN3CCCCC3)c(C)c1C(=O)C2=O | 3.79
Cc1cc2c(cc1C)-c1oc(CN3CCN(C4CC4)CC3)c(C)c1C(=O)C2=O | 8.86
Cc1cc2c(cc1C)-c1oc(CN3CCOCC3)c(C)c1C(=O)C2=O | 5.81
CCN1CCN(Cc2oc3c(c2C)C(=O)C(=O)c2cc(C)c(C)cc2-3)CC1 | 12.36
Cc1cc2c(cc1C)-c1oc(CN3CCN(S(C)(=O)=O)CC3)c(C)c1C(=O)C2=O | 4.33
CC1(C)CCC2=C(O1)c1ccccc1C(=O)C2=O [LAPACHONE] | 1.68
Cc1cc2c(cc1C)-c1oc(CN3CCN(C)CC3)c(C)c1C(=O)C2=O | 15.06
Cc1cc2c(cc1C)-c1occ(C)c1C(=O)C2=O | 4.24

Tested on: A549
Assay: Induction of apoptosis in human A549 cells assessed as condensed nuclei at 1 to 10 uM measured after 24 hrs by DAPI based confocal laser scanning microscopic method
Format: functional, cell-based
Settings: dose 1-10 µM

SMILES | Activity
Cc1cc2c(cc1C)-c1oc(CN3CCN(C)CC3)c(C)c1C(=O)C2=O | Active

Tested on: A549
Assay: Induction of ROS generation in human A549 cells at 10 uM pretreated with DIC or NAC for 1 hr followed by compound addition and measured after 3 hrs by DCFH-DA staining based confocal laser scanning microscopic method
Format: functional, cell-based
Settings: not given

SMILES | Activity
Cc1cc2c(cc1C)-c1oc(CN3CCN(C)CC3)c(C)c1C(=O)C2=O | inactive

Tested on: A549
Assay: Induction of ROS generation in human A549 cells at 1 to 10 uM incubated for 3 hrs by DCFH-DA staining based confocal laser scanning microscopic method
Format: functional, cell-based
Settings: dose 1-10 µM

SMILES | Activity
Cc1cc2c(cc1C)-c1oc(CN3CCN(C)CC3)c(C)c1C(=O)C2=O | Active

Tested on: L02
Assay: Cytotoxicity against NQO1-deficient human L02 cells assessed as reduction in cell viability incubated for 72 hrs by MTT assay
Format: cell-based
Settings: L02, 72 h

SMILES | IC50
Cc1cc2c(cc1C)-c1oc(CN3CCCCC3)c(C)c1C(=O)C2=O | 45.5 µM
Cc1cc2c(cc1C)-c1oc(CN3CCN(C4CC4)CC3)c(C)c1C(=O)C2=O | 34.6 µM
Cc1cc2c(cc1C)-c1oc(CN3CCOCC3)c(C)c1C(=O)C2=O | 28.5 µM
CCN1CCN(Cc2oc3c(c2C)C(=O)C(=O)c2cc(C)c(C)cc2-3)CC1 | 35.8 µM
Cc1cc2c(cc1C)-c1oc(CN3CCN(S(C)(=O)=O)CC3)c(C)c1C(=O)C2=O | 31.2 µM
CC1(C)CCC2=C(O1)c1ccccc1C(=O)C2=O [LAPACHONE] | 9.6 µM
Cc1cc2c(cc1C)-c1oc(CN3CCN(C)CC3)c(C)c1C(=O)C2=O | 36.2 µM
Cc1cc2c(cc1C)-c1occ(C)c1C(=O)C2=O | 31.4 µM
